Data reported in US8193373B2, “Therapeutic compounds” (Allergan, Inc., priority 2006, dated 2012).
pEC50, pKi: −log10 of the molar value.

How the values were obtained:
EP2 receptor [1] = molecular target: T1, EP2 receptor (Homo sapiens, UniProt P43116); experiment: Binding at the EP2 receptor (assays described in WO 2005/044501)
Text: (§1) The compound above has the following activity at the EP2 receptor according to the assays described in WO 2005/044501.

EP2 receptor [2] = molecular target: T1, EP2 receptor; experiment: cAMP assay at the EP2 receptor (assays described in WO 2005/044501); assay type: cell-based
Text: as §1

T1 sequence (P43116 whole entry): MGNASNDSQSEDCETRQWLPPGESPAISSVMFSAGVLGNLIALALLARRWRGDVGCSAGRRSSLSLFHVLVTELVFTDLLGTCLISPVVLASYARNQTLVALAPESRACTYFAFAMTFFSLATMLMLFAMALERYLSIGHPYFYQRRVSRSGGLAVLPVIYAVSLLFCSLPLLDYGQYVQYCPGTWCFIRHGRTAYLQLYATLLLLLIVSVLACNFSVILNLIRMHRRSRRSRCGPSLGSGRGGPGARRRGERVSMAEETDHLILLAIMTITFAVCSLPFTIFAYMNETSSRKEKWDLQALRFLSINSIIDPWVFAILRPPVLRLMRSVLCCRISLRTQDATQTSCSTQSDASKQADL

## N#C[C@@H]1C[C@@H](O)[C@H](/C=C/CC(O)C2(Cc3ccc(Cl)s3)CCC2)[C@H]1C/C=C\CCCC(=O)O (stereo partly drawn) [(Z)-7-((1S,2R,3R,5R)-2-((E)-4-(1-((5-chlorothiophen-2-yl)methyl)cyclobutyl)-4-hydroxybut-1-enyl)-5-cyano-3-hydroxycyclopentyl)hept-5-enoic acid]
EP2 receptor [1]
  pKi: 6.94
EP2 receptor [2]
  pEC50: 8.52
